Literature values in US5110799A, “Antiherpetic agents” (Merck & Co., Inc., priority 1989, dated 1992).

Target: ribonucleotide reductase enzyme of herpes simplex virus (Human herpesvirus 1, UniProt P08543)
Conditions: in vitro; Dutia et al., Cohen et al., U.S. Pat. No. 4,795,740

ribonucleotide reductase enzyme of herpes simplex virus, sequence (P08543 whole entry): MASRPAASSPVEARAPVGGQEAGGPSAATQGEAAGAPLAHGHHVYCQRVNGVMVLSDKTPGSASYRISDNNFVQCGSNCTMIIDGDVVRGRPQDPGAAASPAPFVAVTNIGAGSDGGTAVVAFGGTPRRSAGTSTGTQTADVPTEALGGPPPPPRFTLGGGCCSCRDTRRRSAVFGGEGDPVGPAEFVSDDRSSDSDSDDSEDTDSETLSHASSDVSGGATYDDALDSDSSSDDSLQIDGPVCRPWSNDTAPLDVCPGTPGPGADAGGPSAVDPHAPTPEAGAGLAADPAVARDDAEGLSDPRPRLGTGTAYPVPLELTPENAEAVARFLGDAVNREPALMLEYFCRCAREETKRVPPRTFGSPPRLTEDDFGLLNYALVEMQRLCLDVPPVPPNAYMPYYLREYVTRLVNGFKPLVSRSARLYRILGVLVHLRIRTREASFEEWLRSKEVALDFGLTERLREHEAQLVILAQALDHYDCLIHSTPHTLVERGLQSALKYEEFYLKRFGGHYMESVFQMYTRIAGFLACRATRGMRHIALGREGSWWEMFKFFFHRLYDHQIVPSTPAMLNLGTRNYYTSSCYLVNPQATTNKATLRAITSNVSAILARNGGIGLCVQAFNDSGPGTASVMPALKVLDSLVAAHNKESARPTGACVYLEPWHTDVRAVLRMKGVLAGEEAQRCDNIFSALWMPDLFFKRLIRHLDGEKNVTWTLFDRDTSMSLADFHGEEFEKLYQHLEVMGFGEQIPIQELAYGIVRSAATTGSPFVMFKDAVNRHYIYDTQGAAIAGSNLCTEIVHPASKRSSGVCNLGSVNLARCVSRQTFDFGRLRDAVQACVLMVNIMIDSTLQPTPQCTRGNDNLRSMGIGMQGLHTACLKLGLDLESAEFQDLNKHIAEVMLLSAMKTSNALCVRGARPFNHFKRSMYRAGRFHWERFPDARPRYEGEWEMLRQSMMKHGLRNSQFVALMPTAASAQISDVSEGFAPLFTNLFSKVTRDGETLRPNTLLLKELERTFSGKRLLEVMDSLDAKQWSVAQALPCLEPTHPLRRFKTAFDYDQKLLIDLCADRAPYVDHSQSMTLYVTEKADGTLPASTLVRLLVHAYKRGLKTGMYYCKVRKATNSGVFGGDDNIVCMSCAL

Substance | inhibition of the activity of HSV ribonucleotide reductase
Tyr Ala Gly Ala Val Val Asn Asp Leu | inhibited in vitro the activity of this enzyme
Tyr gly Ala Val Val Asn Asp Leu | inhibited in vitro the activity of this enzyme
